Counter-ions that a name gives are not always drawn. Like-named read-outs stand apart in the source and are kept apart here.

Data set [1] can be described thus: pharmacokinetics and bioavailability after intravenous and topical administration. Format: in vivo, Goetingen mini-pigs. Particulars: intravenous administration at 1 mg/kg.
For data set [2] the following is noted: in vivo; cited from earlier work.
For data set [3] the following is noted: cited from earlier work.
The conditions of data set [4]: cited from earlier work. The source holds these as a separate data set.
For data set [5] the following is noted: in vivo; cited from earlier work. This is another data set of the same source.

Consider `CCCCNc1ccc(C(=O)OCCN(C)C)cc1` [tetracaine, Tetracaine], for which, in data set [1], the “clearance (printed: purified)” value is “highly purified” and the “distribution (printed: dispersed)” value is “highly dispersed”. For the same molecule, the hydrolysis in plasma entry in data set [2] is on record as “rapid”.

Turning to `CCCCNc1ccc(C(=O)OCCN(C)C)cc1` [Tetracaine Hydrochloride], the Water solubility in data set [3] was 150 mg/mL.

As to `CCN(CC)CC(=O)Nc1c(C)cccc1C` [lidocaine, Lidocaine], the “extension of the effect” value in data set [4] (addition of epinephrine (5 μg/ml)) is listed as 50%. Also, in data set [4] (aerosol), the duration of effect is 5 to 6 min and the onset of effect is on record as 1 min. For the same molecule, in data set [4] (endotracheal administration), the “duration of anti-arrhythmic effect” value is 30 to 50 min, the “onset of anti-arrhythmic effect” value is 10 to 15 s and the “time to peak anti-arrhythmic effect” value was 1 to 2 min. Moreover, in data set [4] (epidural administration), the duration of effect result is reported as “up to 4 hours” and the onset of effect is 5 to 15 min. In data set [4] (gel), the duration of effect is 30 to 60 min and the onset of effect was 2 to 3 min. In data set [4] (i.v. administration), the “duration of anti-arrhythmic effect” value is 10 to 20 min and the “onset of anti-arrhythmic effect” value is 45 to 90 s. In data set [4] (infiltration anesthesia), the duration of effect is 30 to 60 min and the onset of effect was 0.5 to 1 min. Further, in data set [5], the “absorbed from the gastrointestinal tract” value was 30-40% and the “excreted by the kidneys unchanged” value is 10%.

The record behind these values is patent publication US12201621B2, “Base and pharmaceutical composition containing it” (BIOTTS S.A., priority 2019, dated 2025).
